Source: patent publication US20070015823A1, “Ambruticin VS compounds” (priority 2004, published 2007)
In brackets after ≈: the same amount, converted by molar mass. Like-named read-outs stand apart in the source and are kept apart here.

Experiments:
A. fumigatus ATCC 204305 = assay: Broth microdilution antifungal susceptibility, NCCLS M38-A; format: cell-based, Aspergillus fumigatus; conditions: minimal concentration inhibiting >95% growth; average of at least two assays (except I-l and I-x)
Cryptococcus neoformans = assay: as above; conditions: 50% growth inhibition, range = minimum and maximum of multiple assays; for MIC C. neoformans 97-14: strain 97-14; for MIC C. neoformans 11239: strain 11239; for MIC C. neoformans 11240: strain 11240
A. flavus ATCC 204304 = assay: as above; format: cell-based, Aspergillus flavus; conditions: minimal concentration inhibiting >95% growth; average of at least two assays (except I-l and I-x)
Epidermophyton floccosum = assay: Dermatophyte broth microdilution, NCCLS M38-A; format: cell-based
Trichophyton rubrum = assay: Dermatophyte broth microdilution, NCCLS M38-A; format: cell-based
Microsporum canis = assay: Dermatophyte broth microdilution, NCCLS M38-A; format: cell-based
[1] = system: Trichophyton interdigitale; assay: Dermatophyte broth microdilution, NCCLS M38-A; format: cell-based
[2] = system: Trichophyton mentagrophytes; assay: Dermatophyte broth microdilution, NCCLS M38-A; format: cell-based
Microsporum gypseum = assay: Dermatophyte broth microdilution, NCCLS M38-A; format: cell-based
Histoplasma capsulatum = format: cell-based
Blastomyces dermatitidis = assay: Broth microdilution antifungal susceptibility, NCCLS M38-A; format: cell-based
C. immitis = assay: microbe, parasite or virus in culture; format: cell-based, Coccidioides immitis
Candida albicans = conditions: Candida albicans

| Molecule | MIC0 A. fumigatus ATCC 204305 (A. fumigatus ATCC 204305) | MIC C. neoformans 97-14 (Cryptococcus neoformans) | MIC C. neoformans 11239 (Cryptococcus neoformans) | MIC C. neoformans 11240 (Cryptococcus neoformans) | MIC0 A. flavus ATCC 204304 (A. flavus ATCC 204304) | other results |
| --- | --- | --- | --- | --- | --- | --- |
| CC[C@H]1O[C@@H](/C(C)=C/[C@H](C)/C=C/[C@H]2[C@@H](C)[C@@H]2/C=C/[C@@H]2O[C@H](CC(=O)O)CC(=O)[C@H]2O)CC=C1C [5-keto ambruticin S, (6R)-5-Oxo-6-hydroxypolyangioic acid, reference compound] | 2.0 µg/mL | 0.5 µg/mL (≈ 1.06 µM) | 2 µg/mL (≈ 4.23 µM) | 2 µg/mL (≈ 4.23 µM) | 1.0 µg/mL |  |
| CC[C@H]1O[C@@H](/C(C)=C/[C@H](C)/C=C/[C@H]2[C@@H](C)[C@@H]2/C=C/[C@@H]2O[C@H](CC(=O)O)C[C@H](N(C)C(C)=O)[C@H]2O)CC=C1C [I-i, (5S,6R)-5-[N-methyl(acetamido)]-6-hydroxypolyangioic acid] | 32 µg/mL |  |  |  | >32 µg/mL | MIC0 Ef (Epidermophyton floccosum): >8 µg/mL; MIC0 Tr (Trichophyton rubrum): >8 µg/mL; MIC0 Mc (Microsporum canis): >8 µg/mL; MIC0 Ti [1]: >8 µg/mL; MIC0 Tm [2]: >8 µg/mL; MIC0 Mg (Microsporum gypseum): >8 µg/mL |
| CC[C@H]1O[C@@H](/C(C)=C/[C@H](C)/C=C/[C@H]2[C@@H](C)[C@@H]2/C=C/[C@@H]2O[C@H](CC(=O)O)C[C@H](NCCO)[C@H]2O)CC=C1C [I-ll, (5S,6R)-5-[(2-hydroxyethyl)amino]-6-hydroxypolyangioic acid] | 10 µg/mL | 0.5 µg/mL (≈ 0.966 µM) | 1 µg/mL (≈ 1.93 µM) | 0.5 µg/mL (≈ 0.966 µM) | 10 µg/mL |  |
| CC[C@H]1O[C@@H](/C(C)=C/[C@H](C)/C=C/[C@H]2[C@@H](C)[C@@H]2/C=C/[C@@H]2O[C@H](CC(=O)O)C[C@H](N(C)Cc3ncc[nH]3)[C@H]2O)CC=C1C [I-y, (5S,6R)-5-(N-(2-imidazolyl)methyl-methylamino)-6-hydroxypolyangioic acid] | 8.5 µg/mL | 0.5 µg/mL (≈ 0.881 µM) | 1 µg/mL (≈ 1.76 µM) | 1 µg/mL (≈ 1.76 µM) | 9 µg/mL | MIC H. capsulatum G217B (Histoplasma capsulatum): <0.19 µg/mL; MIC H. capsulatum GS20 (Histoplasma capsulatum): <0.19 µg/mL; MIC0 Tr (Trichophyton rubrum): 3.17 µg/mL; MIC0 Mc (Microsporum canis): 4 µg/mL; MIC0 Tm [2]: 4.18 µg/mL; MIC B. dermatitidis Gu (Blastomyces dermatitidis): 3.13 µg/mL (≈ 5.51 µM); MIC B. dermatitidis Kr (Blastomyces dermatitidis): >12.5 µg/mL; MIC B. dermatitidis V (Blastomyces dermatitidis): >12.5 µg/mL; MIC0 Mg (Microsporum gypseum): 2.51 µg/mL |
| CC[C@H]1O[C@@H](/C(C)=C/[C@H](C)/C=C/[C@H]2[C@@H](C)[C@@H]2/C=C/[C@@H]2O[C@H](CC(=O)O)C[C@H](NC)[C@H]2O)CC=C1C [Ambruticin VS-4, (5S,6R)-5-(methylamino)-6-hydroxypolyangioic acid, reference compound] | 0.60 µg/mL |  |  |  | 0.47 µg/mL | MIC2 H. capsulatum 05-959 (Histoplasma capsulatum): ≦0.15 μg/mL; MIC2 H. capsulatum 05-1097 (Histoplasma capsulatum): ≦0.15 μg/mL; MIC2 H. capsulatum 05-1159 (Histoplasma capsulatum): ≦0.15 μg/mL; MIC2 C. immitis 05-469 (C. immitis): ≦0.15 μg/mL; MIC2 C. immitis 05-955 (C. immitis): ≦0.15 μg/mL; MIC2 C. immitis 05-1387 (C. immitis): ≦0.15 μg/mL; MIC2 B. dermatitidis 05-106 (Blastomyces dermatitidis): ≦0.15 μg/mL; MIC2 B. dermatitidis 05-186 (Blastomyces dermatitidis): ≦0.15 μg/mL; MIC2 B. dermatitidis 05-1291 (Blastomyces dermatitidis): ≦0.15 μg/mL |
| CC[C@H]1O[C@@H](/C(C)=C/[C@H](C)/C=C/[C@H]2[C@@H](C)[C@@H]2/C=C/[C@@H]2O[C@H](CCO)C[C@H](N(C)C(C)C)[C@H]2O)CC=C1C [I-oo, (5S,6R)-5-(N-isoproyl-methylamino)polyangi-1,6-diol] | 32 µg/mL |  |  |  | 2 µg/mL | MIC H. capsulatum G217B (Histoplasma capsulatum): <0.19 µg/mL; MIC H. capsulatum GS20 (Histoplasma capsulatum): <0.19 µg/mL; MIC B. dermatitidis Gu (Blastomyces dermatitidis): 0.39 µg/mL (≈ 0.756 µM); MIC B. dermatitidis Kr (Blastomyces dermatitidis): >12.5 µg/mL; MIC B. dermatitidis V (Blastomyces dermatitidis): >12.5 µg/mL |
| CC[C@H]1O[C@@H](/C(C)=C/[C@H](C)/C=C/[C@H]2[C@@H](C)[C@@H]2/C=C/[C@@H]2O[C@H](CCO)C[C@H](NC)[C@H]2O)CC=C1C [I-ee, (5S,6R)-5-(methylamino)polyangi-1,6-diol] | 9.5 µg/mL | 2 µg/mL (≈ 4.22 µM) | 2 µg/mL (≈ 4.22 µM) | 2 µg/mL (≈ 4.22 µM) | 3 µg/mL |  |
| CC[C@H]1O[C@@H](/C(C)=C/[C@H](C)/C=C/[C@H]2[C@@H](C)[C@@H]2/C=C/[C@@H]2O[C@H](CC(=O)O)C[C@H](NC(C)C)[C@H]2O)CC=C1C [I-kk, (5S,6R)-5-(isopropylamino)-6-hydroxypolyangioic acid] | 1 µg/mL | 0.25 µg/mL (≈ 0.485 µM) | 0.125 µg/mL (≈ 0.242 µM) | 0.0625 µg/mL (≈ 0.121 µM) | 1.1 µg/mL | MIC H. capsulatum G217B (Histoplasma capsulatum): <0.19 µg/mL; MIC H. capsulatum GS20 (Histoplasma capsulatum): <0.19 µg/mL; MIC B. dermatitidis Gu (Blastomyces dermatitidis): 12.5 µg/mL (≈ 24.2 µM); MIC B. dermatitidis Kr (Blastomyces dermatitidis): >12.5 µg/mL; MIC B. dermatitidis V (Blastomyces dermatitidis): >12.5 µg/mL |
| CC[C@H]1O[C@@H](/C(C)=C/[C@H](C)/C=C/[C@H]2[C@@H](C)[C@@H]2/C=C/[C@@H]2O[C@H](CC(=O)O)C[C@H](N(C)CC3CC3)[C@H]2O)CC=C1C [I-b, (5S,6R)-5-(N-cyclopropylmethyl-methylamino)-6-hydroxypolyangioic acid] | 1.5 µg/mL | 2 µg/mL (≈ 3.69 µM) | 2 µg/mL (≈ 3.69 µM) | 2 µg/mL (≈ 3.69 µM) | 1.5 µg/mL |  |
| CC[C@H]1O[C@@H](/C(C)=C/[C@H](C)/C=C/[C@H]2[C@@H](C)[C@@H]2/C=C/[C@@H]2O[C@H](CC(=O)O)C[C@H](N(C)C3CCCC3)[C@H]2O)CC=C1C [I-c, (5S,6R)-5-(N-cyclopentyl-methylamino)-6-hydroxypolyangioic acid] | 2.67 µg/mL | 1 µg/mL (≈ 1.8 µM) | 2 µg/mL (≈ 3.6 µM) | 2 µg/mL (≈ 3.6 µM) | 2.0 µg/mL |  |
| CC[C@H](C)C[C@H](C)CCCCCCCCC(=O)N[C@H]1C[C@@H](O)[C@@H](NCCN)NC(=O)[C@@H]2[C@@H](O)CCN2C(=O)[C@H]([C@H](O)CCN)NC(=O)[C@H]([C@H](O)[C@@H](O)c2ccc(O)cc2)NC(=O)[C@@H]2C[C@@H](O)CN2C(=O)[C@H]([C@@H](C)O)NC1=O [Caspofungin, reference compound] |  |  |  |  |  | MIC (Candida albicans; read-out: MIC C. albicans 24433): 2 µg/mL (≈ 1.83 µM); MIC (Candida albicans; read-out: MIC C. albicans 90028): 2 µg/mL (≈ 1.83 µM) |
| CC[C@H]1O[C@@H](/C(C)=C/[C@H](C)/C=C/[C@H]2[C@@H](C)[C@@H]2/C=C/[C@@H]2O[C@H](CC(=O)O)C[C@H](N(CC3CC3)CC3CC3)[C@H]2O)CC=C1C [I-e, (5S,6R)-5-[di(cyclopropylmethyl)amino]-6-hydroxypolyangioic acid] | 4.0 µg/mL |  |  |  | 3.33 µg/mL |  |
| CC[C@H]1O[C@@H](/C(C)=C/[C@H](C)/C=C/[C@H]2[C@@H](C)[C@@H]2/C=C/[C@@H]2O[C@H](CC(=O)OC)C[C@H](N(C)C(=O)OCC(C)C)[C@H]2O)CC=C1C [I-gg] | >32 µg/mL |  |  |  | >32 µg/mL |  |
| CC[C@H]1O[C@@H](/C(C)=C/C/C=C/[C@H]2[C@@H](C)[C@@H]2/C=C/[C@@H]2O[C@H](CCO)C[C@H](N(C)C)[C@H]2O)CC=C1C [II-b, (5S,6R)-5-dimethylamino-15-desmethylpolyangi-1,6-diol] | 8 µg/mL |  |  |  | 8 µg/mL |  |
| CC[C@H]1O[C@@H](/C(C)=C/[C@H](C)/C=C/[C@H]2[C@@H](C)[C@@H]2/C=C/[C@@H]2O[C@H](CC(=O)O)C[C@H](N(C)C(=O)NCc3ccccc3)[C@H]2OC(=O)NCc2ccccc2)CC=C1C [I-dd, (5S,6R)-5-(3-benzyl-1-methylureido)-6-(benzylcarbamoyl)polyangioic acid] | >32 µg/mL |  |  |  | >32 µg/mL |  |
| (5S,6R,16S,17S)-5-amino-6-hydroxy-16,17-epxoy-16,17-dihydropolyangioic acid [V-d] | >32 µg/mL |  |  |  | >32 µg/mL |  |
| CC[C@H]1O[C@@H](/C(C)=C/[C@H](C)/C=C/[C@H]2[C@@H](C)[C@@H]2/C=C/[C@@H]2O[C@H](CC(=O)O)C[C@H](NC(=O)NCc3ccccc3)[C@H]2O)CC=C1C [I-s, (5S,6R)-5-(3-benzylureido)-6-hydroxypolyangioic acid] | 16 µg/mL |  |  |  | 32 µg/mL |  |
| CC[C@H]1O[C@@H](/C(C)=C/[C@H](C)/C=C/[C@H]2[C@@H](C)[C@@H]2/C=C/[C@@H]2O[C@H](CCO)C[C@H](N(C)CCO)[C@H]2O)CC=C1C [I-nn, (5S,6R)-5-[N-(2-hydroxyethyl)methylamino]polyangi-1,6-diol] | 32 µg/mL |  |  |  | 4 µg/mL | MIC H. capsulatum G217B (Histoplasma capsulatum): <0.19 µg/mL; MIC H. capsulatum GS20 (Histoplasma capsulatum): <0.19 µg/mL; MIC B. dermatitidis Gu (Blastomyces dermatitidis): >12.5 µg/mL; MIC B. dermatitidis Kr (Blastomyces dermatitidis): >12.5 µg/mL; MIC B. dermatitidis V (Blastomyces dermatitidis): >12.5 µg/mL |
| CC[C@H]1O[C@@H](/C(C)=C/[C@H](C)/C=C/[C@H]2[C@@H](C)[C@@H]2/C=C/[C@@H]2O[C@H](CCO)C[C@H](NCC(F)(F)F)[C@H]2O)CC=C1C [I-iii, (5S,6R)-5-(2,2,2-trifluroethyl)aminopolyangi-1,6-diol] | 16 µg/mL |  |  |  | 16 µg/mL |  |
